Data reported in patent US10023561B2, “Fumagillol heterocyclic compounds and methods of making and using same” (Zafgen, Inc., priority 2015, dated 2018).
“And” between values parts separate entries of the source, which are not always exact repeats. Equal entries are not always repeated. Structures can show the parent of a compound that is named as a salt. Where two headings read alike, the source gives them in different places.

Legend:
[1] = system: Diet Induced Obese (DIO) C57BL/6 mice; assay: 10 day DIO mouse model (body weight, food intake, hematology, blood chemistry); format: in vivo
Excerpt: The objective of this study design was to investigate the efficacy of disclosed compounds in a 10 day DIO mouse model. Effects on body weight, food intake, hematology and blood chemistry were the primary readouts of this study design. […] Mice were fed Research Diets D12492 (60% Kcal fat, 20% Kcal carbohydrate and 20% protein) and provided water ad libitum. DIO mice were received and housed in the facility for approximately two weeks prior to the start of test article administration. On Day −4 or −3, mice were randomized into study groups based on body weight and body weights were continued to be recorded daily for the duration of the study. Daily food intake was assessed starting on Study Day −2 by weighing of the food with hopper together to avoid loss of food in transfer.
(§1) Compounds were formulated into a 100% DMSO stock (at 9 mg/mL) prior to the start, and further diluted into the target working concentration using the vehicle of 10% DMSO in water. Prior to test article administration, starting on Day −3 a dosing acclimation occurred with all animals receiving a subcutaneous injection of vehicle (10% DMSO) only for 3 days. Starting on Day 1, test compounds or vehicle were administered based on individual body weight, subcutaneously, once a day for 10 days. All mice were sacrificed on Day 11, 24 hours following the final dosing on Day 10. After sacrifice, whole blood was collected and analyzed for hematology and blood chemistry parameters.
(§2) Compounds were tested vs. vehicle at various doses (1.0, 0.5, 0.3, 0.1, 0.03 mpk sc (mg per kg animal weight delivered subcutaneously), and the results are shown in Table 2 below.

[2] = system: human fibrosarcoma cell line HT-1080; assay: HT-1080 cell proliferation assay (CellTiter-Glo, 72 hours); format: cell-based
[3] = system: Sprague Dawley rats on 45% high fat diet; assay: 11 day rat DIO model (body weight, food intake, hematology, blood chemistries); format: in vivo
Excerpt: The objective of this study design is to investigate the efficacy of disclosed compounds in an 11 day rat DIO model used to screen compounds for pharmacologic efficacy on endpoints related to obesity and metabolism. Effects on body weight, food intake, hematology and blood chemistries were the primary readouts of this study design. […] Rats were fed Research Diets D12451 (45% High Fat) and provided water ad libitum. Rats were received and housed in the facility for at least two or three weeks prior to start of test article administration. On Day −4 or −3, rats were randomized into study groups based on body weight and body weights were continued to be recorded daily for the duration of the study. Daily food intake was assessed starting on Study Day −2 by weighing the hopper including the food to avoid loss of food in transfer.
as §1, with “for 11” for “for 10”, “All animals” for “All mice”, “11, approximately 2” for “11, 24”, “Day 11.” for “Day 10.”
as §2

[4] = target: recombinant human MetAP2 (Homo sapiens (Human), UniProt P50579); assay: recombinant human MetAP2 enzyme inhibition assay (MAS peptide / amino acid oxidase / Amplex UltraRed); format: biochemical; details: recombinant human MetAP2, 25 minutes at 25° C.
Chain of recombinant human MetAP2 (P50579 whole entry): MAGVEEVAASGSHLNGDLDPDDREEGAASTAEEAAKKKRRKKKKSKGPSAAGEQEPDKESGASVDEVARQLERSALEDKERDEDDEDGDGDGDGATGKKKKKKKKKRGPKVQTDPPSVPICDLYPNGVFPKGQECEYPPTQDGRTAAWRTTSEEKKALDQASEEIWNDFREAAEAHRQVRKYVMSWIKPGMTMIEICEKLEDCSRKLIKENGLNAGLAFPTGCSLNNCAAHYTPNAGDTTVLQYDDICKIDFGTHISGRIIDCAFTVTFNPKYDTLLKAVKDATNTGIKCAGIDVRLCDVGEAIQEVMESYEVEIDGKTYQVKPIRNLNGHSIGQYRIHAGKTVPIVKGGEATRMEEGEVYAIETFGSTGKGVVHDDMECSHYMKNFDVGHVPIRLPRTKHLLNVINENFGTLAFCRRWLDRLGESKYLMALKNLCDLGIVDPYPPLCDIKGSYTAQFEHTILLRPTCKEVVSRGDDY
Experimental: Compounds are tested for their capacity to inhibit recombinant human MetAP2 activity using the following assay.
Flag tagged Human recombinant MetAP2 expressed and isolated for use as the enzyme source. 10 mM stock solutions of compounds were prepared in 100% DMSO and further diluted in 100% DMSO required concentration to 1 mM stocks. The stock compound solutions and DMSO vehicle controls were diluted to target final compound concentrations using assay buffer to a final concentration of 50 mM HEPES containing 100 mM NaCl, pH adjusted to 7.5. The MAS peptide was formulated to a 7.5 mM stock in distilled water and prior to use further diluted 1:4. […] 40 μl of enzyme was mixed with 100 μl of MnCl2 then further diluted in assay buffer to a final concentration of 16 μg/ml. To test for compound effect on MetAP2 enzyme activity, 5 μl of test compound, 10 μl of MAS substrate/amino acid oxidase mixture, 10 μl of MetAP2 was added to test wells in a 384 well black plate with blank wells containing no enzyme, replaced with 10 μl of assay buffer. All compounds were tested in duplicate on two occasions on the same day.
The plate was sealed with a TopSeal A cover and mixed briefly on an orbital mixer at 900 rpm. The plate was incubated for a further 25 minutes at 25° C. […] At the end of the MetAP2 incubation 25 μl Amplex/HRP mixture per well was added and the plate read plate on a plate reader.

[5] = HT-1080, 72 h, read-out: HT-1080 EC50 (nM)
[6] = HT-1080 cells, 72 hours incubation, CellTiter-Glo, read-out: HT-1080 EC50

CO[C@@H]1[C@H](OC(=O)N2CC(CCN3CC(O)C3)C2)CC[C@]2(CO2)[C@H]1[C@@]1(C)O[C@@H]1CC=C(C)C [Example 6, (3R,4S,5S,6R)-5-methoxy-4-((2R,3R)-2-methyl-3-(3-methylbut-2-enyl)oxiran-2-yl)-1-oxaspiro[2.5]octan-6-yl 3-(2-(3-hydroxyazetidin-1-yl)ethyl)azetidine-1-carboxylate formate]
DIO Mouse 10-day weight loss vs vehicle ([1]; mouse, in vivo): 11.8%
EC50 [2, 5]: < 0.3 nM
DIO Rat 11-day weight loss vs vehicle ([3]; rat, in vivo, formate): 0.8% and 4.6%

CO[C@@H]1[C@H](OC(=O)N2CC(CCN3CCC(O)CC3)C2)CC[C@]2(CO2)[C@H]1[C@@]1(C)O[C@@H]1CC=C(C)C [Example 7, (3R,4S,5S,6R)-5-methoxy-4-((2R,3R)-2-methyl-3-(3-methylbut-2-en-1-yl)oxiran-2-yl)-1-oxaspiro[2.5]octan-6-yl 3-(2-(4-hydroxypiperidin-1-yl)ethyl)azetidine-1-carboxylate]
DIO Mouse 10-day weight loss vs vehicle ([1]; DIO mouse, 0.3 mpk sc once a day, 10 days): 1.8%

CO[C@@H]1[C@H](OC(=O)N2CC(CCN3CC(C)(O)C3)C2)CC[C@]2(CO2)[C@H]1[C@@]1(C)O[C@@H]1CC=C(C)C [Example 9, (3R,4S,5S,6R)-5-methoxy-4-((2R,3R)-2-methyl-3-(3-methylbut-2-enyl)oxiran-2-yl)-1-oxaspiro[2.5]octan-6-yl 3-(2-(3-hydroxy-3-methylazetidin-1-yl)ethyl)azetidine-1-carboxylate formate]
DIO Mouse 10-day weight loss vs vehicle ([1]; mouse, in vivo): 7.4%
EC50 [2, 5]: < 0.3 nM
DIO Rat 11-day weight loss vs vehicle ([3]; rat, in vivo, formate): 5.5% and 4.8%

CO[C@@H]1[C@H](OC(=O)N2CC(CCN3CC4C(C3)C4(F)F)C2)CC[C@]2(CO2)[C@H]1[C@@]1(C)O[C@@H]1CC=C(C)C (stereo partly drawn) [Example 22, (3R,4S,5S,6R)-5-methoxy-4-((2R,3R)-2-methyl-3-(3-methylbut-2-enyl)oxiran-2-yl)-1-oxaspiro[2.5]octan-6-yl 3-(2-(6,6-difluoro-3-azabicyclo[3.1.0]hexan-3-yl)ethyl)azetidine-1-carboxylate formate]
DIO Mouse 10-day weight loss vs vehicle ([1]; mouse, in vivo): 14%
EC50 [2, 5]: 0.3 to 1.3 nM

CO[C@@H]1[C@H](OC(=O)N2CC(CCCN3CCCC3)C2)CC[C@]2(CO2)[C@H]1[C@@]1(C)O[C@@H]1CC=C(C)C [Example 59, (3R,4S,5S,6R)-5-methoxy-4-((2R,3R)-2-methyl-3-(3-methylbut-2-enyl)oxiran-2-yl)-1-oxaspiro[2.5]octan-6-yl 3-(3-(pyrrolidin-1-yl)propyl)azetidine-1-carboxylate formate]
IC50 [4]: < 50 nM
body weight loss vs vehicle at 0.3 mg/kg ([1]; 240 h, DIO mouse, 0.3 mpk sc once a day, 10 days): 9.1%

CNC(=O)OC1CN(C(=O)O[C@@H]2CC[C@]3(CO3)[C@@H]([C@@]3(C)O[C@@H]3CC=C(C)C)[C@@H]2OC)C1 [Example 74, (3R,4S,5S,6R)-5-methoxy-4-((2R,3R)-2-methyl-3-(3-methylbut-2-enyl)oxiran-2-yl)-1-oxaspiro[2.5]octan-6-yl 3-(methylcarbamoyloxy)azetidine-1-carboxylate]
EC50 [2, 6]: < 0.3 nM

CCN(CC)CCNC(=O)CCC1CN(C(=O)O[C@@H]2CC[C@]3(CO3)[C@@H]([C@@]3(C)O[C@@H]3CC=C(C)C)[C@@H]2OC)C1 [Example 88, (3R,4S,5S,6R)-5-methoxy-4-((2R,3R)-2-methyl-3-(3-methylbut-2-enyl)oxiran-2-yl)-1-oxaspiro[2.5]octan-6-yl 3-(3-(2-(diethylamino)ethylamino)-3-oxopropyl)azetidine-1-carboxylate formate]
DIO Mouse 10-day weight loss vs vehicle ([1]; mouse, in vivo): 9%
EC50 [2, 5]: 0.3 to 1.3 nM
DIO Rat 11-day weight loss vs vehicle ([3]; rat, in vivo): 4.4%

CCN(CC)CCC1CN(C(=O)O[C@@H]2CC[C@]3(CO3)[C@@H]([C@@]3(C)O[C@@H]3CC=C(C)C)[C@@H]2OC)C1 [Example 103, (3R,4S,5S,6R)-5-methoxy-4-((2R,3R)-2-methyl-3-(3-methylbut-2-enyl)oxiran-2-yl)-1-oxaspiro[2.5]octan-6-yl 3-(2-(diethylamino)ethyl)azetidine-1-carboxylate]
EC50 [2, 6]: < 0.3 nM

CCN(CC)CCC1CCN1C(=O)O[C@@H]1CC[C@]2(CO2)[C@@H]([C@@]2(C)O[C@@H]2CC=C(C)C)[C@@H]1OC (stereo partly drawn) [Example 106, (3R,4S,5S,6R)-5-methoxy-4-((2R,3R)-2-methyl-3-(3-methylbut-2-enyl)oxiran-2-yl)-1-oxaspiro[2.5]octan-6-yl 2-(2-(diethylamino)ethyl)azetidine-1-carboxylate]
DIO Mouse 10-day weight loss vs vehicle ([1]; DIO mouse, 0.1 mpk sc once a day, 10 days): 2%
DIO Rat 11-day weight loss vs vehicle ([3]; DIO rat, 0.5 mpk sc once a day, 11 days): 4.82%
